The text below walks through data of EPA's ToxRefDB 2.

Molecules are shown by their SMILES.

The test system of series [1] is mouse. The following applies: Subchronic oral toxicity in rodents, b6c3f1, Water, dose end: 14 week, group: systemic.
In series [2] the test system is rat. The following applies: Subchronic oral toxicity in rodents, fischer, Water, dose end: 14 week, group: systemic.
The subject of series [3] is rat. The following applies: Subchronic oral toxicity in rodents, fischer, Feed, dose end: 13 week, group: systemic.
The subject of series [4] is mouse. The following applies: Subchronic oral toxicity in rodents, b6c3f1, Feed, dose end: 13 week, group: systemic, systemic / pathology microscopic / kidney / mineralization + systemic / in life observation / body weight / body weight gain.
Series [5] deals with rat. The following applies: Carcinogenicity, fischer, Oral, Feed, dose end: 104 week, group: systemic.
Series [6] relates to mouse. The following applies: Carcinogenicity; b6c3f1; Oral; Feed; dose end: 103 week; group: systemic; systemic / in life observation / body weight / body weight + systemic / pathology microscopic / kidney / mineralization + systemic / ….
For series [7], the system named is rat. The following applies: Developmental neurotoxicity range-finding study; sprague dawley; Oral; Feed; dose end: 21 PND; group: cannot be grouped; systemic / in life observation / body weight / body weight + systemic / in life observation / body weight / body weight gain + systemic / in….
Series [8] relates to rat. The following applies: Subchronic oral toxicity in rodents, Feed, dose end: 90 day, group: systemic.
Series [9] has as its system dog. The following applies: Chronic toxicity, beagle, Oral, Feed, dose end: 52 week, group: systemic.
Series [10] concerns mouse. The following applies: Carcinogenicity; cd1; Oral; Feed; dose end: 104 week; group: systemic; systemic / in life observation / clinical signs / hyperactivity.
Series [11] relates to dog. The following applies: Subchronic oral toxicity in nonrodent, beagle, Feed, dose end: 90 day, group: systemic, systemic / in life observation / clinical signs / defecation (diarrhea) + systemic / in life observation / clinical signs / emesis + ….
For series [12], the system named is rat. The following applies: Prenatal developmental toxicity study, other, Oral, Gavage/Intubation, dose end: 15 GD.
The subject of series [13] is rat. The following applies: Combined chronic toxicity/carcinogenicity, other, Oral, Feed, dose end: 27 month, group: systemic.
The subject of series [14] is rat. The following applies: Multigenerational reproductive toxicity study, other, Oral, Feed, dose end: 3 generation.
In series [15] the test system is rat. The following applies: Combined chronic toxicity/carcinogenicity, other, Oral, Feed, dose end: 27 month, group: systemic. This is another data set of the same source.
The next series concerns rabbit. The following applies: Sub-acute dermal toxicity, new zealand white, Topical, dose end: 28 day, group: systemic, systemic / in life observation / body weight / body weight + systemic / in life observation / food consumption / food consumption + systemic….
Series [16] concerns mouse. The following applies: Combined chronic toxicity/carcinogenicity; other; Oral; Feed; dose end: 24 month; group: systemic; systemic / organ weight / thyroid gland / absolute + systemic / organ weight / thyroid gland / relative to body weight + systemic / organ ….
Series [17] deals with rat. The following applies: Sub-acute repeat dose toxicity, other, Oral, Feed, dose end: 28 day, group: systemic.
[18] abbreviates: systemic / organ weight / kidney / absolute + systemic / organ weight / kidney / relative to body weight + systemic / pathology microscopic….
The mark [19] stands for this setting: systemic / organ weight / liver / absolute + systemic / organ weight / liver / relative to body weight + systemic / pathology microscopic / ….
[20] abbreviates: systemic / hematology / erythrocyte (rbc) count differential / erythrocyte (rbc) + systemic / hematology / hematocrit (hct) / hematocrit (….
[21] abbreviates: systemic / hematology / hematocrit (hct) / hematocrit (hct) + systemic / hematology / hemoglobin (hgb) / hemoglobin (hgb) + systemic / organ….
Setting [22] is: systemic / pathology microscopic / kidney / mineralization.
The mark [23] stands for this setting: systemic / in life observation / body weight / body weight + systemic / pathology microscopic / kidney / hyperplasia + systemic / pathology ….
[24] abbreviates: systemic / pathology microscopic / kidney / hyperplasia + systemic / pathology microscopic / urinary bladder / hyperplasia + systemic / ….
[25] abbreviates: systemic / clinical chemistry / urea nitrogen / urea + systemic / clinical chemistry / alkaline phosphatase (alp/alk) / alkaline phosphatase….
Setting [26] is: systemic / in life observation / clinical signs / tremors + systemic / clinical chemistry / glucose / glucose + systemic / in life ….
[27] abbreviates: group: developmental, developmental / developmental malformation / bone / unossified.
[28] abbreviates: group: maternal, reproductive / reproductive performance / aborted / aborted + systemic / in life observation / body weight / body weight gain + systemic / ….
[29] abbreviates: systemic / in life observation / body weight / body weight + systemic / in life observation / food consumption / food consumption.
Where [30] appears, read: systemic / in life observation / body weight / body weight + systemic / in life observation / food consumption / food consumption + systemic….
Where [31] appears, read: group: parental, systemic / in life observation / body weight / body weight + systemic / organ weight / brain / relative to body weight.
[32] abbreviates: group: parental, systemic / in life observation / body weight / body weight + systemic / pathology gross / full gross necropsy / hyperemia + systemic / ….
Where [33] appears, read: group: reproductive, reproductive / reproductive performance / fertility / fertility + reproductive / reproductive performance / mating / mating + reproductive….
Setting [34] is: group: reproductive, reproductive / reproductive performance / mating / mating + reproductive / reproductive performance / pregnancy / pregnancy.
Where [35] appears, read: systemic / in life observation / body weight / body weight.
[36] abbreviates: systemic / in life observation / body weight / body weight + systemic / pathology microscopic / testes / interstitial cell tumor benign + ….
[37] abbreviates: systemic / organ weight / liver / absolute + systemic / organ weight / liver / relative to brain weight.
Where [38] appears, read: systemic / organ weight / liver / absolute + systemic / organ weight / liver / relative to brain weight + systemic / organ weight / liver / ….

As for `CC(O)CCl` (stereo not given) [1-Chloro-2-propanol], the LOAEL with mouse [1] (setting [18]) came out at 340 mg/kg/day; in the series with rat [2] (setting [20]) it was 100 mg/kg/day. Further, the figures for the NOAEL with mouse [1] (setting [18]) and with rat [2] (setting [20]) were 170 mg/kg/day and 35 mg/kg/day, respectively. Further, the values for the LEL in the series with mouse [1] (setting [19]) and in the series on rat [2] (setting [21]) were 7 mg/kg/day and 5 mg/kg/day, respectively. Further, the NEL was under 7 mg/kg/day with mouse [1] (setting [19]) and under 5 mg/kg/day in the series with rat [2] (setting [21]).
Regarding `NCCCCCCCCCCC(=O)O` [11-Aminoundecanoic acid], the LOAEL stood at 900 mg/kg/day with rat [3] (systemic / pathology microscopic / kidney / hyperplasia + systemic / in life observation / body weight / body weight gain), 2250 mg/kg/day in the series on mouse [4], 750 mg/kg/day in the series with rat [5] (setting [23]) and 1120 mg/kg/day in the series with mouse [6]. The NOAEL is 750 mg/kg/day in the series on rat [3] (systemic / pathology microscopic / kidney / hyperplasia + systemic / pathology microscopic / kidney / mineralization), 1800 mg/kg/day in the series with mouse [4], 375 mg/kg/day in the series on rat [5] (setting [23]) and under 1120 mg/kg/day with mouse [6]. Also, the LEL in the series with rat [3] (setting [22]) was determined as 450 mg/kg/day; with mouse [4], 2250 mg/kg/day; in the series on rat [5] (setting [24]) it was 375 mg/kg/day; in the series with mouse [6], 1120 mg/kg/day. The NEL is under 450 mg/kg/day in the series on rat [3] (setting [22]), 1800 mg/kg/day in the series with mouse [4], under 375 mg/kg/day with rat [5] (setting [24]) and under 1120 mg/kg/day in the series on mouse [6].
For `CC1(C)C(C(=O)OC(C#N)c2cccc(Oc3ccccc3)c2)C1(C)C` (stereo not given) [Fenpropathrin], the LEL with rat [7] was 27 mg/kg/day; in the series with rat [8] (systemic / clinical chemistry / urea nitrogen / urea) it was 5 mg/kg/day; with dog [9] (systemic / in life observation / clinical signs / tremors + systemic / clinical chemistry / glucose / glucose) it was 6.25 mg/kg/day; with mouse [10] it was 65.2 mg/kg/day; in the series with dog [11], 6.25 mg/kg/day. Also, the LOAEL in the series on rat [7] was 27 mg/kg/day; in the series on rat [8] (systemic / clinical chemistry / alkaline phosphatase (alp/alk) / alkaline phosphatase (alp/alk) + systemic / hematology / blood clotting / …), 30 mg/kg/day; in the series on dog [9] (systemic / in life observation / clinical signs / tremors), 6.25 mg/kg/day; with mouse [10], over 65.2 mg/kg/day; in the series with dog [11] it was 6.25 mg/kg/day. Moreover, the NEL with rat [7] was 13 mg/kg/day; in the series on rat [8] (setting [25]) it was 1.5 mg/kg/day; in the series with dog [9] (setting [26]), 2.5 mg/kg/day; in the series with mouse [10] it was 16.2 mg/kg/day; with dog [11], under 6.25 mg/kg/day. The NOAEL was 13 mg/kg/day with rat [7]; 15 mg/kg/day with rat [8] (setting [25]); 2.5 mg/kg/day in the series on dog [9] (setting [26]); at least 65.2 mg/kg/day in the series on mouse [10]; under 6.25 mg/kg/day in the series with dog [11].
Regarding `CCNc1nc(Cl)nc(NC(C)(C)C)n1` [Terbuthylazine], the LEL in the series with rat [12] (setting [27]) amounted to 5 mg/kg/day; with rat [12] (setting [28]) it was 30 mg/kg/day; with rat [13] (setting [30]) it was 1.6 mg/kg/day; with rat [14] (setting [31]) it was 2.5 mg/kg/day; in the series on rat [14] (setting [34]) it was 2.5 mg/kg/day; in the series on rat [15] (setting [36]) it was 1.24 mg/kg/day. Moreover, the results for the LEL with rabbit, with mouse [16] and in the series with rat [17] (setting [38]) were 1 mg/kg/day, 3.22 mg/kg/day and 2.28 mg/kg/day, respectively. Moreover, the LOAEL was 5 mg/kg/day in the series on rat [12] (setting [27]); 30 mg/kg/day with rat [12] (setting [28]); 1.6 mg/kg/day with rat [13] (setting [30]); over 5 mg/kg/day with rat [14] (setting [32]); over 5 mg/kg/day in the series on rat [14] (setting [33]); 1.24 mg/kg/day with rat [15] (setting [35]). The LOAEL with rabbit was found to be 1 mg/kg/day; with mouse [16], 3.22 mg/kg/day; with rat [17] (setting [37]) it was 2.28 mg/kg/day. In addition, the NEL in the series with rat [12] (setting [27]) is 1 mg/kg/day; in the series on rat [12] (setting [28]), 5 mg/kg/day; with rat [13] (setting [29]), 0.36 mg/kg/day; with rat [14] (setting [31]), under 2.5 mg/kg/day; with rat [14] (setting [34]), under 2.5 mg/kg/day; with rat [15] (setting [36]), under 1.24 mg/kg/day. Besides, the NEL is under 1 mg/kg/day in the series with rabbit, under 3.22 mg/kg/day in the series on mouse [16] and under 2.28 mg/kg/day in the series with rat [17] (setting [38]). For the same molecule, the NOAEL was 1 mg/kg/day in the series on rat [12] (setting [27]); 5 mg/kg/day in the series with rat [12] (setting [28]); 0.36 mg/kg/day in the series with rat [13] (setting [29]); at least 5 mg/kg/day in the series with rat [14] (setting [32]); at least 5 mg/kg/day in the series on rat [14] (setting [33]); under 1.24 mg/kg/day in the series with rat [15] (setting [35]). The NOAEL with rabbit was under 1 mg/kg/day; with mouse [16], under 3.22 mg/kg/day; with rat [17] (setting [37]), under 2.28 mg/kg/day.
